Assay results as given in US9926271B2, “Octahydrocyclopentapyrroles, their preparation and use” (The Trustees of Columbia University in the City of New York, priority 2013, dated 2018).

Legend:
Abca4−/− mice = settings: animal model of excessive bisretinoid accumulation; cited from earlier work
serum RBP4 and retinol = settings: in vivo; cited from earlier work
RBP4-TTR interaction [1] = target: T1, RBP4-TTR interaction (Homo sapiens, UniProt P02753); settings: cited from earlier work
RBP4 [2] = target: T2, RBP4 (Homo sapiens, UniProt P02753); settings: cited from earlier work
[3] = tested on: retinal pigment epithelium cells; settings: many cell types, including the retinal pigment epithelium cells; cited from earlier work
mice = settings: cited from earlier work
RBP4 [4] = target: T2, RBP4; assay: Scintillation proximity RBP4 binding assay (SPA); set-up: Untagged human RBP4 purified from urine of tubular proteinuria patients; purchased Fitzgerald Industries International; host or cells: urine of tubular proteinuria patients; settings: 10 nM 3H-Retinol, 50 nM biotinylated RBP4
Protocol: Scintillation Proximity RBP4 Binding Assay
Untagged human RBP4 purified from urine of tubular proteinuria patients was purchased from Fitzgerald Industries International. It was biotinylated using the EZ-Link Sulfo-NHS-LC-Biotinylation kit from Pierce following the manufacturer's recommendations. Binding experiments were performed in 96-well plates (OptiPlate, PerkinElmer) in a final assay volume of 100 μl per well in SPA buffer (1×PBS, pH 7.4, 1 mM EDTA, 0.1% BSA, 0.5% CHAPS). The reaction mix contained 10 nM ^3H-Retinol (48.7 Ci/mmol; PerkinElmer), 0.3 mg/well Streptavidin-PVT beads, 50 nM biotinylated RBP4 and a test compound. Nonspecific binding was determined in the presence of 20 μM of unlabeled retinol. The reaction mix was assembled in the dark under dim red light. The plates were sealed with clear tape (TopSeal-A: 96-well microplate, PerkinElmer), wrapped in the aluminum foil, and allowed to equilibrate 6 hours at room temperature followed by overnight incubation at +4° C. Radiocounts were measured using a TopCount NXT counter (Packard Instrument Company).

RBP4-TTR interaction [5] = target: T1, RBP4-TTR interaction; assay: TR-FRET (HTRF) assay for retinol-induced RBP4-TTR interaction; type: biochemical; set-up: human RBP4 fragment (amino acids 19-201); host or cells: Gold(DE3)pLysS E. coli strain (Stratagene), pMAL-c4x vector; settings: in the presence of 1 μM retinol; read-out: HTRF assay for antagonists of RBP4-TTR interaction: IC50
From the text: TR-FRET Assay for Retinol-Induced RBP4-TTR Interaction
Binding of a desired RBP4 antagonist displaces retinol and induces hindrance for RBP4-TTR interaction resulting in the decreased FRET signal (FIG. 7). Bacterially expressed MBP-RBP4 and untagged TTR were used in this assay. […] Following cell lysis, recombinant RBP4 was purified from the soluble fraction using the ACTA FPLC system (GE Healthcare) equipped with the 5-ml the MBP Trap HP column. Human untagged TTR was purchased from Calbiochem. Untagged TTR was labeled directly with Eu^3+ Cryptate-NHS using the HTRF Cryptate Labeling kit from CisBio following the manufacturer's recommendations. HTRF assay was performed in white low volume 384 well plates (Greiner-Bio) in a final assay volume of 16 μl per well. The reaction buffer contained 10 mM Tris-HCl pH 7.5, 1 mM DTT, 0.05% NP-40, 0.05% Prionex, 6% glycerol, and 400 mM RE. […] Titration of test compounds in this assay was conducted in the presence of 1 μM retinol. All reactions were assembled in the dark under dim red light and incubated overnight at +4° C. wrapped in aluminum foil. TR-FRET signal was measured in the SpectraMax M5e Multimode Plate Reader (Molecular Device). Fluorescence was excited at 337 nm and two readings per well were taken: Reading 1 for time-gated energy transfer from Eu(K) to d2 (337 nm excitation, 668 nm emission, counting delay 75 microseconds, counting window 100 microseconds) and Reading 2 for Eu(K) time-gated fluorescence (337 nm excitation, 620 nm emission, counting delay 400 microseconds, counting window 400 microseconds). The TR-FRET signal was expressed as the ratio of fluorescence intensity: Flu665/Flu620×10,000.

| Structure (SMILES) | IC50 (RBP4 [4]) [nM] | IC50 (RBP4-TTR interaction [5]) [nM] | also measured |
| --- | --- | --- | --- |
| CC1=C(/C=C/C(C)=C/C=C/C(C)=C/C(=O)Nc2ccc(O)cc2)C(C)(C)CCC1 [fenretinide, N-(4-hydroxy-phenyl)retinamide] |  |  | A2E production (Abca4−/− mice): reduced A2E production; serum RBP4 and retinol (serum RBP4 and retinol): reduce serum RBP4 and retinol; RBP4-TTR interaction (RBP4-TTR interaction [1]): disrupt the RBP4-TTR interaction; binding to RBP4, displacement of all-trans retinol (RBP4 [2]): bind to RBP4; induction of apoptosis [3]: extremely active inducer of apoptosis; formation of hemangiosarcomas (mice): stimulate formation of hemangiosarcomas |
| Cc1nc(N2C[C@H]3C[C@@H](c4ccccc4C(F)(F)F)C[C@H]3C2)nc(C(=O)O)c1C [Compound 74, 5,6-Dimethyl-2-((3aR,5r,6aS)-5-(2-(trifluoromethyl)phenyl)hexahydrocyclopenta[c]pyrrol-2(1H)-yl)pyrimidine-4-carboxylic Acid] | 48.7 | 123 |  |
| O=C(O)c1cc(C(F)(F)F)nc(N2C[C@H]3C[C@@H](c4ccccc4C(F)(F)F)C[C@H]3C2)n1 [Compound 65, 6-(Trifluoromethyl)-2-((3aR,5r,6aS)-5-(2-(trifluoromethyl)phenyl)hexahydrocyclopenta[c]pyrrol-2(1H)-yl)pyrimidine-4-carboxylic Acid] | 9.5 | 88 |  |
| O=C(O)c1ccnc(N2C[C@H]3C[C@@H](c4ccccc4C(F)(F)F)C[C@H]3C2)n1 [Compound 64, 2-((3aR,5r,6aS)-5-(2-(Trifluoromethyl)phenyl)hexahydrocyclopenta[c]pyrrol-2(1H)-yl)pyrimidine-4-carboxylic Acid] | 27.2 | 79.6 |  |
| O=C(O)c1cccnc1N1C[C@H]2C[C@@H](c3ccccc3C(F)(F)F)C[C@H]2C1 [Compound 71, 2-((3aR,5r,6aS)-5-(2-(Trifluoromethyl)phenyl)hexahydrocyclopenta[c]pyrrol-2(1H)-yl)nicotinic Acid] | 43.8 | 382 |  |
| O=C(O)c1cnc(N2C[C@H]3C[C@@H](c4ccccc4C(F)(F)F)C[C@H]3C2)nc1 [Compound 68] | 172 | 1860 |  |
| O=C(O)c1nc(N2C[C@H]3C[C@@H](c4ccccc4C(F)(F)F)C[C@H]3C2)ncc1F [Compound 67] | 25.9 | 276 |  |
| Cc1cnc(N2C[C@H]3C[C@@H](c4ccccc4C(F)(F)F)C[C@H]3C2)nc1C(=O)O [Compound 66] | 90 | 596 |  |
| Cc1cc(C(=O)O)cc(N2C[C@H]3C[C@@H](c4ccccc4C(F)(F)F)C[C@H]3C2)n1 [Compound 70, 2-Methyl-6-((3aR,5r,6aS)-5-(2-(trifluoromethyl)phenyl)hexahydrocyclopenta[c]pyrrol-2(1H)-yl)isonicotinic Acid] | 53.2 | 229 |  |
| CC(C)c1cc(C(=O)O)nc(N2C[C@H]3C[C@@H](c4ccccc4C(F)(F)F)C[C@H]3C2)n1 [Compound 63, 6-Isopropyl-2-((3aR,5r,6aS)-5-(2-(trifluoromethyl)phenyl)hexahydrocyclopenta[c]pyrrol-2(1H)-yl)pyrimidine-4-carboxylic Acid] | 158 | 203 |  |
| Cc1cc(NC(=O)N2C[C@H]3C[C@@H](c4ccccc4C(F)(F)F)C[C@H]3C2)c(C(=O)O)cn1 [Compound 73, 6-Methyl-4-((3aR,5r,6aS)-5-(2-(trifluoromethyl)phenyl)octahydrocyclopenta[c]pyrrole-2-carboxamido)nicotinic Acid] | 23.9 |  |  |
| Cc1cc(C(=O)O)nc(N2C[C@H]3C[C@@H](c4ccccc4C(F)(F)F)C[C@H]3C2)c1 [Compound 69, 4-Methyl-6-((3aR,5r,6aS)-5-(2-(trifluoromethyl)phenyl)hexahydrocyclopenta[c]pyrrol-2(1H)-yl)picolinic Acid] | 14 | 295 |  |
| Cc1cc(C(=O)O)nc(N2C[C@H]3C[C@@H](c4cc(F)ccc4C(F)(F)F)C[C@H]3C2)n1 [Compound 72, 2-((3aR,5r,6aS)-5-(5-Fluoro-2-(trifluoromethyl)phenyl)hexahydrocyclopenta[c]pyrrol-2(1H)-yl)-6-methylpyrimidine-4-carboxylic Acid] | 54.3 | 49.2 |  |
| COc1cc(C(=O)O)nc(N2C[C@H]3C[C@@H](c4ccccc4C(F)(F)F)C[C@H]3C2)n1 [Compound 62, 6-Methoxy-2-((3aR,5r,6aS)-5-(2-(trifluoromethyl)phenyl)hexahydrocyclopenta[c]pyrrol-2(1H)-yl)pyrimidine-4-carboxylic Acid] | 14.3 | 86.7 |  |
